Consider four molecules from patent US5998362A, “Conjugates useful in the treatment of prostate cancer” (priority 1997, dated 1999).

Where a SMILES comes first, the peptide text is derived from it. [ ]: non-standard residue; d: D form. The star is where a group is joined. Doxorubicin(3'-N) = COc1cccc2c1C(=O)c1c(O)c3c(c(O)c1C2=O)C[C@@](O)(C(=O)CO)C[C@@H]3O[C@H]1C[C@H](N*)[C@H](O)[C@H](C)O1; Decanoyl(3,6,9-trioxa) = COCCOCCOCC(=O)*; hArg = N=C(N)NCCCC[C@H](N)C(=O)O; Chg = N[C@H](C(=O)O)C1CCCCC1

For one data set, the target named is free PSA (Homo sapiens, UniProt P07288). The data set is described as follows: Recognition of oligopeptide-doxorubicin conjugates by free PSA (time to 50% cleavage, HPLC). The data set is classed as biochemical. The arrangement: required for 50% cleavage of the noted oligopeptides with enzymatically active free PSA. To be noted: Table 3, DOX conjugates. On the procedure:
If no salt is indicated for the conjugate, the free conjugate was tested.

The subject of data set [1] is LNCap prostate tumor cells. The data set is described as follows: In vitro cytotoxicity of peptidyl derivatives of doxorubicin, Alamar Blue assay, LNCaP. The data set is classed as cell-based. How it is done: (§1) The cytotoxicities of the cleaveable oligopeptide-doxorubicin conjugates, prepared as described in Examples 3-6, against a line of cells which is known to be killed by unmodified doxorubicin was assessed with an Alamar Blue assay. Specifically, cell cultures of LNCap prostate tumor cells or DuPRO cells in 96 well plates was diluted with medium containing various concentrations of a given conjugate (final plate well volume of 200 μl). The cells were incubated for 3 days at 37° C., 20 μl of Alamar Blue is added to the assay well. The cells were further incubated and the assay plates were read on a EL-310 ELISA reader at the dual wavelengths of 570 and 600 nm at 4 and 7 hours after addition of Alamar Blue. Relative percentage viability at the various concentration of conjugate tested was then calculated versus control (no conjugate) cultures. If no salt is indicated, the free conjugate was tested.
(In general: The colour change of resazurin is a common sign of viable cells or microbes.)

The next data set relates to DuPRO cells. The data set is described as follows: In vitro cytotoxicity of peptidyl derivatives of doxorubicin, Alamar Blue assay, DuPRO. The data set is classed as cell-based. To be noted: 3 days incubation, read-out: DuPRO cell kill EC 50 (μM), value in parentheses. On the procedure: as §1

free PSA, sequence (P07288 25-261): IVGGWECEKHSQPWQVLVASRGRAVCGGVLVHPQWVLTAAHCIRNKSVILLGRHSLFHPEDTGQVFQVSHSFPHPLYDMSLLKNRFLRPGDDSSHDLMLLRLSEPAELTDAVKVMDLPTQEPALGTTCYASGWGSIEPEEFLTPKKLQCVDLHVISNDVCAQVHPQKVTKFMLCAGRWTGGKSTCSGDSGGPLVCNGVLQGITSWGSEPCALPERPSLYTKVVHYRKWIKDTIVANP

In the case of `COCCOCCOCC(=O)N[C@@H](CCCCN)C(=O)N[C@@H](Cc1ccc(O)cc1)C(=O)N[C@@H](CCC(N)=O)C(=O)N[C@@H](CO)C(=O)N[C@@H](CO)C(=O)N[C@@H](CO)C(=O)N[C@@H](CC(C)C)C(=O)N[C@H]1C[C@H](O[C@H]2C[C@](O)(C(=O)CO)Cc3c(O)c4c(c(O)c32)C(=O)c2c(OC)cccc2C4=O)O[C@@H](C)[C@H]1O` [PEG(2)-KYQ-SSSL-DOX(3'), PEG(2)-LysTyrGln-SerSerSerLeu-DOX (3')] ({Decanoyl(3,6,9-trioxa)}-KYQSSSL-{Doxorubicin(3'-N)}), at free PSA (4 hours), the “Substrate cleavage by York PSA at 4 HOUR” value amounted to 20%.
Regarding `COCCOCCOCC(=O)N[C@@H](CO)C(=O)N[C@@H](CO)C(=O)N[C@@H](CO)C(=O)N[C@H](C(=O)N[C@@H](CCC(N)=O)C(=O)N[C@@H](CO)C(=O)N[C@H](CC(C)C)C(=O)N[C@H]1C[C@H](O[C@H]2C[C@](O)(C(=O)CO)Cc3c(O)c4c(c(O)c32)C(=O)c2c(OC)cccc2C4=O)O[C@@H](C)[C@H]1O)C1CCCCC1` [PEG(2)-SSSChgQ-S(dL)-DOX(3'), PEG(2)-SerSerSerChgGln-Ser(dLeu)-DOX (3')], the “Substrate cleavage by York PSA at 3 HOUR” value on free PSA (3 hours) is on record as 46%.
As to `COCCOCCOCC(=O)N[C@@H](CCCCNC(=N)N)C(=O)N[C@H](C(=O)N[C@@H](CCC(N)=O)C(=O)N[C@@H](CO)C(=O)N[C@@H](CC(C)C)C(=O)N[C@H]1C[C@H](O[C@H]2C[C@](O)(C(=O)CO)Cc3c(O)c4c(c(O)c32)C(=O)c2c(OC)cccc2C4=O)O[C@@H](C)[C@H]1O)C1CCCCC1` [PEG(2)-hRChgQ-SL-DOX(3'), PEG(2)-hArgChgGln-SerLeu-DOX (3')] ({Decanoyl(3,6,9-trioxa)}-[hArg][Chg]QSL-{Doxorubicin(3'-N)}), the “Solubility remark in the cell kill column (INSOLUBLE / PS)” value in data set [1] (Table 4, DOX conjugates, abbreviation not defined) is “INSOLUBLE”.
Regarding “N-[2-{2-(2-methoxyethoxy)ethoxy}acetyl]-Ser-Ser-Ser-Chg-Gln-Ser-Leu-Dox [PEG(2)-SSSChgQ-SL-DOX(3')]”, the EC50 in data set [1] (LNCaP cells, 72 h (3 days) incubation, Alamar Blue, read-out: LNCaP Cell Kill in 72 HRS, {48 HRS} EC 50) was 10 µM; with DuPRO cells, greater than 100 µM. At free PSA (buffer 50 mM Tris pH7.4, 140 mM NaCl, conjugate:PSA 100 to 1), the “Time to 50% Substrate Cleavage by York PSA” value stood at 60 min.
